Laboratory results from publication PMC7156724, “Potent BRD4 inhibitor suppresses cancer cell-macrophage interaction” (Nature Communications, 2020).
Where “and” joins values, the source holds several entries; their conditions need not be identical. Equal values may be shown once.

System: HIF1 reporter activity
Experiment: HIF1 luciferase reporter assay
Format: cell-based, human
Design: key to HIF1 luciferase reporter activity, relative (Fig.7e): firefly/Renilla luciferase activity ratio, relative to control
Method: Fig. 7 NHWD-870 inhibited CSF1 expression through suppressing BRD4 and HIF1α in tumor cells. a, b Representative western blot analysis of control (Ctrl) and BRD4 knockout (KO) A375 and A2780 cells exposed to 20% or 1% O2 for 24 hours. Selected from three independent experiments. c, d Representative western blot analysis of A375 and A2780 cells treated with DMSO or 25 nM NHWD-870 and exposed to 20% or 1% O2 for 24 h. Selected from three independent experiments. e Relative HIF1 luciferase reporter activity in control (Ctrl), BRD4 knockout (KO), or NHWD-870 treated A375 and A2780 cells exposed to 20% or 1% O2 for 24 h. Data are presented as mean ± SEM from three independent experiments. f RT-qPCR analyses of CSF1 in control (Ctrl), BRD4 knockout (KO), or NHWD-870 treated A375 and A2780 cells exposed to 20% or 1% O2 for 24 hours. Data are presented as mean ± SEM from three independent experiments. g RT-qPCR analyses of HIF1A in A375 or A2780 cells treated with 15 nM NHWD-870 or DMSO control for 24 h. Data are presented as mean ± SEM from three independent experiments. h Genome browser view of BRD4 ChIP-seq peaks on the HIF1A promoter. Shown are BRD4 ChIP and input control of A375 cells (top panel) and BRD4 ChIP of MDA-MB231 cells treated with DMSO or JQ-1 (bottom panel). i BRD4 ChIP-qPCR analyses of the HIF1A promoter in A2780 cells treated with DMSO or NHWD-870 for 72 h. Data are presented as mean ± SEM from three independent experiments. j RT-qPCR analyses of CSF1 in A375 and A2780 cells were transiently transduced with HIF1α, then exposed to 1% O2 for 24 h. Ctrl, Control. Data are presented as mean ± SEM from three independent experiments. k A model showing the effects of NHWD-870 on cancer cell-TAM interaction. NHWD-870 inhibits the proliferation and survival of TAMs partly by inhibiting BRD4 activity, HIF1α expression, and CSF1 secretion by tumor cells, and downregulating CSF1R mediated ERK and PI3K/AKT signaling in TAMs. p values were calculated using two-tailed, unpaired t tests in this figure. *p < 0.05; **p < 0.01; ***p < 0.001. Source data are provided as a Source Data file.
Supplementary Figure 15. […]
Data in (a) and (c-e) are presented as mean ± SEM from 3 independent experiments. p values were calculated using two-tailed, unpaired t tests. **, p<0.01; ***, p<0.001. Source data are provided as a Source […]
All patients had […]
undergone complete cytoreductive surgery.
14. Immunohistochemical staining. Paraffin-embedded implantation samples isolated from peritoneal metastasis of EOC patients (128 cases) were sectioned at a thickness of 4μm. To stain CD68, CSF1 and p-BRD4, the slides were first deparaffinized in xylene and rehydrated with gradient concentrations of alcohol under standard procedures. After rehydration, the slides were immersed in 0.01 mol/L citrate buffer (pH 6.0) and heated (95°C) for 15 min for antigen retrieval.
Then, the samples were incubated with 3% hydrogen peroxide (H2O2) for 10 minutes followed by 10% normal goat serum blocking for 10 minutes. Subsequently, the sections were incubated with rabbit polyclonal anti-human CD68 antibody (dilution 1:100) (sc-20060, Santa Cruz Biotechnology) and anti-human p-BRD4

Cc1nnn(C)c1-c1cnc2c3c4cnn(C)c4ccc3n([C@H](c3ccccc3)C3CCOCC3)c2c1 [NHWD-870]
HIF1 luciferase reporter activity, relative (Fig.7e) (A375, 1% O2): 3.6595 and 5.4118 and 3.2149
HIF1 luciferase reporter activity, relative (Fig.7e) (A375, 20% O2): 0.7214 and 0.5505 and 0.6045
HIF1 luciferase reporter activity, relative (Fig.7e) (A2780, 1% O2): 1.7045 and 2.3901 and 2.1842
HIF1 luciferase reporter activity, relative (Fig.7e) (A2780, 20% O2): 0.5644 and 0.5674 and 0.4042
HIF1 reporter activity (A2780 and A375 cells, 20% or 1% O2, 24 h): significantly decreased HIF1 reporter activity
